In patent US5032575A, “Method for enhancing healing of corneal endothelial wounds” (Eye Research Institute of Retina Foundation, Inc., priority 1989, dated 1991):
Entries after “also recorded” stand apart in the source; their conditions may differ. Read-outs that look alike come from different tables or passages of the source.

Assays:
[1] = tested on: cultured corneal endothelial cells; test: Pharmacological regulation of morphology and mitosis in cultured rabbit corneal endothelium (Example 2); assay type: cell-based
[2] = tested on: rabbit corneal endothelial cells; settings: cited from earlier work; for cell shape in first passage cultures (rabbit): EGF and/or indomethacin
[3] = tested on: rabbit corneal endothelial cells; test: Cell shape morphometry of confluent cultured rabbit corneal endothelial cells (Example 1); settings: for potentiation of EGF-induced elongation: 10^-5, equimolar, in presence of EGF; for rank order of potency of cyclooxygenase inhibitors on cell shape: effect on cell shape in presence of EGF; for cell shape at confluence / mean / distribution of the major axes (Amax): cultured seven days; for cell shape at confluence: control cells polygonal; for mean / distribution of the major axes (Amax): control mean 33 μ; for ratio Per/Amax: perimeter / major axis, 3.14 for a perfectly round cell
[4] = tested on: human corneal endothelial cells; settings: EGF and/or indomethacin; cited from earlier work
[5] = tested on: cultured corneal endothelial cells; settings: control cultures and cultures with EGF
[6] = tested on: Corneal endothelial cells; test: f-actin labelling with rhodamine labelled phallacidin in cultured corneal endothelial cells; settings: 1 week culture; control shows circumferential bands of f-actin
cat corneal endothelium = settings: 22° C.; cited from earlier work
[7] = tested on: intact rabbit corneal endothelium; test: Endothelial wound closure in excised rabbit corneas, specular microscopy with morphometric analysis (Example 3)
[8] = tested on: most cell culture systems; settings: cited from earlier work
[9] = tested on: Corneal endothelial cells; test: Transmission electron microscopy of pharmacologically modulated endothelial phenotypes; settings: cultured cells
[10] = EGF 10 ng/ml, indomethacin 1 μM in M-K medium

With `C=C[C@@]1(C)CC(=O)[C@]2(O)[C@@]3(C)[C@@H](O)CCC(C)(C)[C@@H]3[C@H](O)[C@H](OC(C)=O)[C@@]2(C)O1` [Forskolin] the “effect on EGF and INDO-induced elongation” value ([1]; added with EGF and INDO) was “prevented EGF and INDO-induced elongation” and the “effect on cell density / mitosis in presence of EGF and INDO” value ([1]; added with EGF and INDO) was “inhibited endothelial mitosis”.
In the case of `CCCCC[C@H](O)/C=C/[C@H]1[C@H](O)CC(=O)[C@@H]1C/C=C\CCCC(=O)O` [PGE2, prostaglandin E2], the “effect of exogenous PGE2 on elongation in cultures treated with EGF and indomethacin” value ([2]; added with EGF and indomethacin) is listed as “blocks elongation”.
For `CCCCC[C@H](O)/C=C/[C@@H]1[C@@H](C/C=C\CCCC(=O)O)[C@@H](O)C[C@H]1O` [PGF2α], the “effect on elongation of Amax produced by EGF and indomethacin” value ([3]; increasing concentrations/doses added with EGF and indomethacin) was “has no effect on the elongation of Amax”.
In the case of `CCCCCCCCCCCCCC(=O)O[C@@H]1[C@@H](C)[C@@]2(O)[C@@H](C=C(CO)C[C@]3(O)C(=O)C(C)=C[C@@H]23)[C@H]2C(C)(C)[C@]12OC(C)=O` [TPA], the “cell density / mitosis, agent alone” value [1] is reported as “increased cell density”, the “cell shape (elongation), agent alone” value [1] is reported as “caused elongation” and the “synergy when TPA and EGF both present in the medium” value [1] is reported as “synergistic effects were not noted”.
With `CCCCC/C=C\C/C=C\C/C=C\C/C=C\CCCC(=O)O` [arachidonic acid] the “effect on cell shape” value ([3]; added in the absence of EGF, in the presence or absence of indomethacin) was “had no effect on cell shape”.
In the case of `C[C@@H]1C[C@H]2[C@@H]3CCC4=CC(=O)C=C[C@]4(C)[C@@]3(F)[C@@H](O)C[C@]2(C)[C@@]1(O)C(=O)CO` [dexamethasone], the “potentiation of EGF-induced elongation” value [3] is reported as “has no effect” and the “rank order of potency of cyclooxygenase inhibitors on cell shape” value [3] is reported as “inactivity”.
For `CC(C(=O)O)c1ccc(-c2ccccc2)c(F)c1` (stereo not shown) [flurbiprofen], the “rank order of potency of cyclooxygenase inhibitors on cell shape” value [3] was “indomethacin>suprofen>flurbiprofen”.
For `COc1ccc2c(c1)c(CC(=O)O)c(C)n2C(=O)c1ccc(Cl)cc1` [indomethacin], the “cell shape in first passage cultures (human)” value [4] is listed as “cause elongation”, the “cell shape at confluence” value [3] is listed as “elongated at confluence with a stellate shape” and the “mean / distribution of the major axes (Amax)” value [3] is listed as “increases”. The “rank order of potency of cyclooxygenase inhibitors on cell shape” value [3] was “indomethacin>suprofen>flurbiprofen”, the “ratio Per/Amax” value [3] was 2.6 and the “synthesis of PGE2” value [5] was “totally inhibits”. The “cellular elongation, INDO added to TPA containing medium” value ([1]; with TPA) was “marked enhancement of cellular elongation”, the “final cell density, INDO added to TPA containing medium” value ([1]; with TPA) was “had no effect on final cell density” and the f-actin staining pattern [6] was “almost completely lacking in individual actin fibers”. For the same compound, the “cell shape in first passage cultures (rabbit)” value [2] was “cause elongation” and the “PGE2 synthesis by cultures of polygonal endothelial cells” value [2] was “totally inhibited”.
For `CC(C(=O)O)c1ccc(C(=O)c2cccs2)cc1` (stereo not shown) [suprofen], the “potentiation of EGF-induced elongation” value [3] was “Potentiation of EGF-induced elongation also occurs” and the “rank order of potency of cyclooxygenase inhibitors on cell shape” value [3] was “indomethacin>suprofen>flurbiprofen”.
In the case of Cholera toxin, the “cell shape (elongation), agent alone” value [1] is reported as “had no effect on cell shape”, the “effect on EGF and INDO-induced elongation” value [1] is reported as “antagonized EGF and INDO-induced elongation” and the “effect on EGF-induced elongation” value [1] is reported as “EGF-induced elongation did not occur”. For the same compound, the “effect on cell density / mitosis in presence of EGF and INDO” value [1] was “without preventing increased cell density”, the “effect on elongation in response to TPA” value [1] was “did not prevent elongation in response to TPA” and the “effect on mitogenic effect of EGF” value [1] was “potentiated”. For the same compound, the “effect on mitogenic response to TPA” value [1] was “potentiate the mitogenic response”.
For epidermal growth factor [EGF], the “time for association of radiolabeled EGF to be complete” value (cat corneal endothelium) is listed as “approximately 120 minutes”, the “average percent change of the shape factor relative to control group” value ([7]; 150 minutes after wounding) is listed as “two times greater” and the “average displacement of cells near the wound boundary” value ([7]; 150 minutes after wounding, control 7 μm) is listed as roughly 16 μm. For the same compound, the “migration of cells near the wound boundary vs control group” value [7, 10] was “migrated significantly more than those in the control group; also recorded: significantly increased migration of cells near the wound boundary”, the “wound closure time vs control group” value [7, 10] was “shortened the wound closure time” and the “time after wounding at which wound area reached maximum” value ([7]; EGF 10 ng/ml, indomethacin 1 μM in M-K medium, 37° C., control 20 minutes) was 10 min. For the same compound, the “time for wound area to decrease to 50% of the original size” value ([7]; EGF 10 ng/ml, indomethacin 1 μM, control about 240 minutes) was no more than 120 min, the “relative average percent change of the shape factor, significance vs control (FIG. 3)” value ([7]; EGF+indomethacin at 50, 100, 150 minutes, EGF at 100 and 150 minutes) was “significantly different from the control group” and the “time of peak of the shape change” value ([7]; one cornea per group, control 200 minutes) was 150 min. For the same compound, the “wound closed to percent of the original size” value ([7]; within 250 minutes after wounding) was 80%, the “time after addition at which DNA synthesis reaches a maximum” value [8] was “about 22 hours” and the “time after addition at which increased DNA synthesis begins” value [8] was “approximately 15 hours”. For the same compound, the “cell shape in first passage cultures (human)” value [4] was “cause elongation”, the cell density ([3]; compared with cells grown under control conditions) was “little or no effect on cell density” and the “cell shape at confluence” value [3] was “spindle-shaped at confluence”. The “mean / distribution of the major axes (Amax)” value [3] was “significantly greater distribution of major axes”, the “ratio Per/Amax” value [3] was “decreases significantly” and the “synthesis of PGE2” value [5] was “unaffected”. For the same compound, the “cell shape in first passage cultures (rabbit)” value [2] was “cause elongation”, the “shape change in cultured rabbit tissue (April 1986 paper)” value [2] was “induce a shape change in the cells that is independent of mitosis” and the “ultrastructure by transmission electron microscopy” value [9] was “Junctional complexes were absent”.
